Patent US20040023362A1, “Degradation of polycyclic aromatic hydrocarbons by microorganisms” (priority 2000, published 2004)
Converted amounts (≈) assume the structure as drawn.

Experiments:
[1] = test system: Bacterial consortium VUN 10,009; experiment: Degradation of high molecular weight PAHs by axenic cultures; assay type: cell-based
Description: (§1) PAH concentrations in the DCM extracts were measured on a Varian Star 3400 gas chromatograph, equipped with a flame ionization detector, using a BPX-5 capillary column (25 m×0.22 mm). The nitrogen carrier flow rate was 0.8 ml min^−1 with a pressure of 20 psi under split conditions (95:1). The oven temperature was programmed at 200° C. for 1 min, followed by a linear increase of 10° C. min^−1 to 320° C.; this temperature was held for 15 min. Injector and detector temperatures were maintained at 300° C. The peak areas of both internal standard and PAH were used to calculate peak area ratios. Ratios obtained for each sample, as well as controls, were compared to those of PAH standards.
(§2) PAH degradation experiments using axenic bacterial and fungal cultures, and fungal-bacterial co-culture, were performed in 30 ml reaction vials containing 10 ml of medium. Before inoculation, 0.1 ml of PAH stock solution (either single PAH or mixed PAH stock as described above) was introduced into the medium. This medium was then inoculated with microorganisms to produce either axenic cultures or co-cultures. Axenic cultures were inoculated with either bacteria (1 ml) to provide an initial cell population of approximately 10^4 cells ml^−1, or with mycelial pellets (0.25 g wet weight) in 10 ml of BSM. For the co-culture experiments, BSM (10 ml) contained bacteria (10^4 cells ml^−1) and 0.25 g wet weight of mycelial pellets. Experiments to investigate of co-metabolic PAH degradation by P. janthinellum were conducted with the PAH in BSM supplemented with glucose (1% final concentration) or MYPD medium. […] Medium (10 ml) was inoculated with fungal or bacterial culture using the same inoculum size as described above. All cultures were aseptically flushed with filtered (0.22 μm) air (0.2 litres min^−1) for 5 seconds on the day of inoculation and every 7 days thereafter. Abiotic controls were sterile medium containing only PAH(s). Killed-cell controls were the PAH-containing medium inoculated with a killed microbial population. The experimental cultures were conducted in triplicate, and all controls were run in duplicate. All cultures were incubated in the dark at 30° C./175 rpm. At designated time intervals the entire culture (10 ml) was sacrificed for the PAH-extraction procedure and biomass determinations.

[2] = test system: VUN 10,010; experiment: as above; assay type: cell-based, Stenotrophomonas maltophilia
Description: as §1, §2

[3] = test system: P. janthinellum VUO 10,201; experiment: as above; assay type: cell-based, Penicillium janthinellum
Description: as §1, §2

[4] = test system: S. maltophilia VUN 10,010; experiment: Degradation of single high molecular weight PAHs by high initial populations of VUN 10,010 with surfactant; assay type: cell-based, Stenotrophomonas maltophilia
Description: […] Incubations contained a single PAH in BSM at 30° C. The PAH remaining was calculated as a percentage relative to the PAH recovered from the […]. Averages for the test cultures are from triplicate experiments.
Tergitol NP-10 (5 and 10 g l^−1) was added to BSM broths each containing a single high molecular weight PAH.

[5] = test system: S. maltophilia VUN 10,010; experiment: Degradation of a PAH mixture by VUN 10,010 with surfactant, low initial cell population; assay type: cell-based, Stenotrophomonas maltophilia; conditions: for Maximum Specific Degradation Rate: — = not appreciable
Description: The incubations were conducted in BSM at 30° C., using low initial cell populations. The PAH remaining was calculated as a percentage relative to the PAH recovered from the uninoculated control. Averages for the test cultures are from triplicate experiments.
A low initial cell population of around 9×10^3 cells ml^−1 was used.

[6] = physchem
Description: PAHs (approximately 1 g l^−1) were added to a 10 ml solution of BSM plus surfactant in a 30 ml glass reaction vial, which was sealed with an aluminium cap fitted with a septum. Surfactant concentrations corresponded to levels above, below, and at the CMC, and replicates were set up to allow sampling in duplicate at different time intervals up to 72 h. Incubation was performed at 30° C. and 175 rpm. The entire vial contents was collected by syringe and expressed through a preconditioned membrane filter (0.22 μm, Sartorius AG, Germany) to remove solid-phase crystalline PAH while allowing solubilized PAH in the aqueous phase and micellar pseudophase to pass into sterile vials. The filter was preconditioned by purging the filter with a few mls of sample solution to allow sorption saturation of the internal surfaces of the syringe, filter and needle. The filtrates were extracted with dichloromethane (DCM), and the concentration of solubilized PAH was determined by GC-FID as described below.
The effectiveness of a particular surfactant in solubilizing a given PAH can be assessed by determining the molar solubilization ratio (MSR) and micelle/water partition coefficient (Km). In our study, the concentrations of added PAHs were well in excess of aqueous saturation concentrations; therefore the MSR value of each compound can be obtained from the slope of the curve generated from a plot of PAH concentration versus surfactant concentration for surfactant concentrations above CMC (Edwards et al, 1991).
Km values can be determined from the measured MSR values according to the following equation (Edwards et al, 1991): [formula]
^SPAH, CMC is the apparent solubility of the PAH (mol l^−1) at surfactant CMC. VW is the molar volume of water at 30° C. ie. 0.018015 l mol^−1(Rogers and Mayhew, 1981).

[7] = test system: strain VUN 10,010; experiment: Agar (well) diffusion toxicity test of surfactants; assay type: cell-based, Stenotrophomonas maltophilia; conditions: peptone-glucose agar, 30° C.
Description: The agar diffusion method was used to determine the effects of surfactants on growth by observing zones of inhibition on peptone-glucose agar (Cserhali et al, 1991). The medium contained per litre: 5 g peptone, 5 g glucose, 0.5 g NaCl, 3 g beef extract, 20 g agar; the pH was adjusted to 7.0 and sterilized by autoclaving for 15 min at 121° C. Bacterial cultures were mixed with the molten medium (25 ml) to obtain an inoculum size of approximately 10^8 cells ml^−1, and this was poured into a Petri dish. Once the cell-medium mixture had solidified, 7 mm diameter holes were made, and 150 μl of aqueous surfactant solutions was added (0.1-10.0 g l^−1). Growth inhibition zones were observed after 48-72 h at 30° C.

[8] = Tergitol NP-10 5 g l^−1, Single PAH
[9] = Tergitol NP-10 10 g l^−1, Single PAH
[10] = BSM + PYR (pyrene 250 mg l^−1), 28 day samples
[11] = Tergitol NP-10 5 g l^−1, Mixed PAH

Structure (SMILES) | PAH removal (%) ([1]; BSM, 56 day samples) | PAH removal (%) ([2]; BSM, 56 day samples) | PAH removal (%) ([3]; BSM, 56 day samples) | PAH removal (%) ([3]; BSM^g, 28 day samples) | PAH removal (%) ([3]; MYPD, 28 day samples) | Maximum Specific Degradation Rate ([4]; Brij 35 5 g l^−1, Single PAH) | percentage change in maximum specific degradation rate due to surfactant addition ([4]; Brij 35 5 g l^−1, Single PAH) | Maximum Specific Degradation Rate ([4]; Brij 35 10 g l^−1, Single PAH) | percentage change in maximum specific degradation rate due to surfactant addition ([4]; Brij 35 10 g l^−1, Single PAH) | Maximum Specific Degradation Rate ([4]; No Surfactant, Single PAH) | Maximum Specific Degradation Rate [4, 8] | percentage change in maximum specific degradation rate due to surfactant addition [4, 8] | Maximum Specific Degradation Rate [4, 9] | percentage change in maximum specific degradation rate due to surfactant addition [4, 9] | PAH removal (%) [1, 10] | PAH removal (%) [2, 10] | Maximum Specific Degradation Rate ([5]; No Surfactant, Mixed PAH) | percentage change in maximum specific degradation rate due to surfactant addition [5, 11] | Maximum Specific Degradation Rate [5, 11] | also measured
c1cc2ccc3cccc4ccc(c1)c2c34 [Pyrene, pyrene] | 100.0 ± 0.0 | 100.0 ± 0.0 | 3.3 ± 0.3 | 80.3 ± 2.8 | 93.6 ± 2.8 |  |  |  |  |  |  |  |  |  |  |  |  |  |  | 
c1ccc2c(c1)ccc1c3ccccc3ccc21 [Chrysene, chrysene] | 8.2 ± 0.5 | 9.1 ± 1.2 | 12.2 ± 0.4 | 25.6 ± 1.9 | 31.7 ± 3.7 | 7.35 mg PAH degraded mg^−1 protein day^−1 | +64% | 7.93 mg PAH degraded mg^−1 protein day^−1 | +77% | 4.49 mg PAH degraded mg^−1 protein day^−1 | 6.44 mg PAH degraded mg^−1 protein day^−1 | +43% | 4.16 mg PAH degraded mg^−1 protein day^−1 | −7% | 12.1 + 0.4% | 28.3 + 1.2% | 1.42 mg PAH degraded mg^−1 protein day^−1 | +94% | 2.76 mg PAH degraded mg^−1 protein day^−1 | PAH degradation rate in the presence of surfactants ([4]; Tergitol NP-10 5 and 10 g l^−1, high initial cell population): did not show improved PAH degradation rate
c1ccc2c(c1)cc1ccc3cccc4ccc2c1c34 [Benzo[a]pyrene, benzo[a]pyrene] | 6.7 ± 0.9 | 12.3 ± 1.0 | 16.9 ± 0.2 | 56.5 ± 2.4 | 72.2 ± 3.2 | 5.84 mg PAH degraded mg^−1 protein day^−1 | −6% | 5.47 mg PAH degraded mg^−1 protein day^−1 | −12% | 6.21 mg PAH degraded mg^−1 protein day^−1 | 6.73 mg PAH degraded mg^−1 protein day^−1 | +8% | 7.90 mg PAH degraded mg^−1 protein day^−1 | 27% | 23.3 + 0.5% | 32.2 + 1.2% | 1.43 mg PAH degraded mg^−1 protein day^−1 | +201% | 4.30 mg PAH degraded mg^−1 protein day^−1 | solubility ([6]; 30° C.): ~0.0159 µM (≈ 0.00401 µg/mL); solubility ([6]; 30 °C, aqueous with cosolvent or surfactant or cyclodextrin, thermodynamic from solid): 160 to 180 µM (≈ 40.4 to 45.4 µg/mL)
c1ccc2c(c1)ccc1cc3c(ccc4ccccc43)cc12 [Dibenz[a,h]anthracene, dibenz[a,h]anthracene] | 5.9 ± 0.5 | 7.8 ± 0.6 | 12.9 ± 0.3 | 24.4 ± 2.7 | 36.7 ± 1.7 | 6.26 mg PAH degraded mg^−1 protein day^−1 | +50% | 7.20 mg PAH degraded mg^−1 protein day^−1 | +73% | 4.17 mg PAH degraded mg^−1 protein day^−1 | 7.32 mg PAH degraded mg^−1 protein day^−1 | +76% | 8.74 mg PAH degraded mg^−1 protein day^−1 | 110% | 13.8 + 0.9% | 26.7 + 0.7% | 1.20 mg PAH degraded mg^−1 protein day^−1 | +140% | 2.89 mg PAH degraded mg^−1 protein day^−1 | concentration in the aqueous phase ([6]; at surfactant CMC, gas chromatograph): below the detection limit
CCCCCCCCCCCCOS(=O)(=O)[O-].[Na+] [SDS] |  |  |  |  |  |  |  |  |  |  |  |  |  |  |  |  |  |  |  | MIC [7]: 200 µg/mL
c1ccc2cc3c(ccc4ccccc43)cc2c1 [Benz[a]anthracene, benz[a]anthracene] | 7.8 ± 0.3 | 8.2 ± 1.6 | 9.1 ± 1.4 | 18.1 ± 2.3 | 23.1 ± 1.2 | 7.18 mg PAH degraded mg^−1 protein day^−1 | +63% | 7.37 mg PAH degraded mg^−1 protein day^−1 | +67% | 4.41 mg PAH degraded mg^−1 protein day^−1 | 9.66 mg PAH degraded mg^−1 protein day^−1 | +119% | 11.14 mg PAH degraded mg^−1 protein day^−1 | +153% | 9.6 + 0.7% | 19.84 + 0.3% | 1.71 mg PAH degraded mg^−1 protein day^−1 | +90% | 3.25 mg PAH degraded mg^−1 protein day^−1 | 
CCCCCCCCCCCCCCCC[N+](C)(C)C.[Br-] [CTAB] |  |  |  |  |  |  |  |  |  |  |  |  |  |  |  |  |  |  |  | inhibitory concentration in well diffusion toxicity test [7]: 0.01 to 0.05 g/L
